{"source": "patent US20230087994A1", "about": "“TARGETED BIFUNCTIONAL DEGRADERS” (YALE UNIVERSITY, priority 2019, published 2023)", "key": {"HepG2 cells [1]": {"system": "HepG2 cells", "assay": "MIF-GN3-mediated endocytosis of fluorescently labeled human MIF by HepG2 cells", "experimental": "Human MIF protein was fluorescently labeled with Alexa 488 NHS ester, then incubated with HepG2 cells in the presence of varying levels of MIF-GN3.\nNext, inhibitors of various endocytic pathways were utilized to determine if MIF-GN3 mediates MIF endocytosis in a manner consistent with ASGPR (FIG. 132)."}, "human MIF [2]": {"target": "T1, human MIF (Homo sapiens, UniProt P14174)", "T1 sequence (P14174 2-115 limits assumed)": "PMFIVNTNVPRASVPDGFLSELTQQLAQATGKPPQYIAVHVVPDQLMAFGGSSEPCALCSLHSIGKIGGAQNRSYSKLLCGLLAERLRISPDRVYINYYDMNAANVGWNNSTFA", "assay": "Depletion of human MIF from cell culture supernatant (sandwich ELISA)", "type": "cell-based", "set-up": "host or cells: exogenous protein added to cell culture", "conditions": "for removal of MIF from supernatant: after 48 hours", "experimental": "The ability of bifunctional MIF-binding molecules to mediate the depletion of human MIF from cell culture was investigated. In these assays, human MIF was present at a concentration of 100 nM, and a sandwich ELISA assay was utilized to measure the concentration of human MIF remaining in the cell culture supernatant. The closely related bifunctional molecules MIF-GN3, MIF-PEG2-GN3, and MIF-PEG4-GN3 were used, as well as the structurally dissimilar molecule MIF-NVS-PEG3-GN3. […] Based on the ease of its synthesis and its efficacy in this experiment, MIF-GN3 was utilized for further studies. It was next investigated whether the MIF inhibitor 3w mediates MIF depletion from cell culture supernatant. […] When cells were treated with 3w, no depletion of exogenous MIF protein was observed after 24 hours (FIG. 128B)."}, "human MIF [3]": {"target": "T1, human MIF", "assay": "Depletion of injected recombinant human MIF from serum in mice", "type": "in vivo", "set-up": "injected into mice", "conditions": "for depletion of human MIF protein from serum: 10 mpk, 30 minutes, FIG. 135", "experimental": "In vivo human MIF depletion experiments were undertaken to determine whether MIF-GN3 can mediate the depletion of injected recombinant human MIF from serum in mice. Mice were injected with five μg of the human MIF protein. In this experiment, one group of mice was also injected with a single 10 mpk dose of MIF-GN3 along with human MIF protein. It was observed that after four hours, the average level of human MIF in serum in the PBS-treated mice was 1.76 ng/mL (FIG. 134). In mice treated with 10 mpk MIF-GN3, however, the concentration of human MIF in serum was 0.68 ng/mL. One day after the initial injection, human MIF levels had reached background levels for both conditions. […] It was hypothesized that, due to the short half-life of human MIF in serum, investigating human MIF levels at earlier time points may be more informative.\nNext, an experiment was performed to determine whether MIF-GN3 could enhance MIF clearance at time points earlier than four hours. Mice were coinjected with recombinant human MIF and 10 mpk MIF-GN3 via either i.p. or i.v. routes. For the PBS control arms, human MIF was injected with PBS. It was observed that in the absence of MIF-GN3, there was a spike in huMIF levels in circulation after 30 minutes (FIG. 135). In the presence of MIF-GN3, however, levels of MIF protein remained low at 30 minutes and no spike in its concentration was observed. By two hours, the levels of human MIF in circulation decreased to background levels. […] In a further experiment, whether an inhibitor of the MIF protein (3w) is able to mediate the protein's depletion from serum was determined. A bifunctional molecule that mediates the depletion of α-DNP antibody from serum was also assayed as a negative control. Neither of these molecules was expected to mediate the formation of a ternary complex between human MIF protein and ASGPR.\n(§1) In order to confirm that mice injected with one or ten mpk MIF-GN3 had received the injection, and that the observed stability of MIF concentrations in MIF-GN3 treated mice was not the result of injection error, 200 μg of α-DNP antibody was coinjected with the MIF protein in this experiment. […] An investigation of the ability of MIF-GN3 to mediate the depletion of endogenous mouse MIF in vivo was next undertaken. Mice were treated with either PBS or 10 mpk of MIF-GN3. […] One possible explanation for this finding is that MIF protein may be synthesized rapidly, and any increase in degradation mediated by MIF-GN3 may not be of a large enough magnitude to impact the protein's level in serum."}, "mouse MIF": {"target": "T2, mouse MIF (Mus musculus, UniProt P34884)", "T2 construct": "mediate the depletion of endogenous mouse MIF in vivo; from tissue; host or cells: mouse serum (in vivo)", "assay": "Depletion of endogenous mouse MIF in vivo", "set-up": "species or system mice", "conditions": "10 mpk, single dose; FIG. 137", "experimental": "as §1"}, "PC3 cells": {"system": "PC3 cells", "assay": "Human prostate cancer PC3 tumor growth in mice", "type": "in vivo", "experimental": "The ability of MIF-GN3 to mediate the depletion of MIF in a therapeutically relevant disease model was investigated. […] An experiment was conducted to determine whether the bifunctional molecule MIF-GN3 can deplete sufficient human MIF from serum to slow PC3 tumor growth. Mice were injected with an aliquot of PC3 cells, and the size of the resultant tumors as well as the levels of human MIF in serum were monitored over five weeks. […] Five weeks after the initial PC3 cell injection, the first of the mice reached maximal tumor size ([…]) and was sacrificed (FIG. 138). […] The decrease in human MIF levels mediated by MIF-GN3 is consistent with a mechanism of action in which MIF-GN3 mediates the depletion and degradation of circulating MIF protein. While the α-MIF antibody would not necessarily be expected to decrease the levels of human MIF, it is possible that the antibody mediates MIF neutralization in a manner which masks its signal as determined by ELISA. Alternatively, the α-MIF antibody may mediate depletion or degradation of huMIF by some endocytic mechanism. Another possible explanation is that the α-MIF antibody decrease serum levels of active human MIF to such an extent at early time points that PC3 cells proliferate much more slowly, and therefore fewer cells are actively secreting human MIF.\nMice were sacrificed when their tumor volumes reached 1000 mm^3. […] At this same time point, less than 25% of the mice in any other arm had survived."}, "HepG2 cells [4]": {"system": "HepG2 cells", "assay": "Subcellular localization of endocytosed MIF protein in HepG2 cells", "type": "cell-based, human", "conditions": "12 hours; FIG. 133", "experimental": "In order to investigate the subcellular localization of endocytosed MIF protein, colocalization studies were performed in HepG2 cells. After 12 hours of MIF-GN mediated endocytosis, several punctae displaying MIF-derived fluorescence were present in each cell."}, "[5]": {"assay": "Pharmacokinetics of MIF-GN3 in male nude mice", "type": "in vivo", "conditions": "one mpk dose", "source_text": "The ability of MIF-GN3 to mediate the depletion of injected human MIF from serum in mice was studied. First, the pharmacokinetics of the bifunctional molecule were investigated."}}}
{"smiles": "CC(=O)N[C@H]1[C@H](OCCOCCOCCNC(=O)CCOCC(COCCC(=O)NCCOCCOCCO[C@@H]2O[C@H](CO)[C@H](O)[C@H](O)[C@H]2NC(C)=O)(COCCC(=O)NCCOCCOCCO[C@@H]2O[C@H](CO)[C@H](O)[C@H](O)[C@H]2NC(C)=O)NC(=O)CNC(=O)CCCOc2ccc3nc(-c4cn(-c5ccc(O)c(F)c5)nn4)ccc3c2)O[C@H](CO)[C@H](O)[C@@H]1O", "note": "[MIF-GN3]", "values": [{"measurement": "fluorescence relative to cells not treated with bifunctional molecule", "setting": "HepG2 cells [1]; 10 nM MIF protein, 200 nM MIF-GN3, FIG. 131", "result": 4, "unit": "fold"}, {"measurement": "MIF uptake compared to lower concentrations", "setting": "HepG2 cells [1]; 5.00 μM MIF-GN3, 100 nM MIF protein", "result": "slight decrease in MIF uptake"}, {"measurement": "MIF-GN3 concentration of maximal intracellular fluorescence", "setting": "HepG2 cells [1]; highest concentration investigated, FIG. 130", "result": 1.0, "unit": "µM"}, {"measurement": "removal of MIF from supernatant", "setting": "human MIF [2]; 200 nM", "result": 56.0, "unit": "%"}, {"measurement": "removal of MIF from supernatant", "setting": "human MIF [2]; 1 μM", "result": 67.0, "unit": "%"}, {"measurement": "depletion of human MIF from cell culture supernatant", "setting": "human MIF [2]; human MIF 100 nM, 24 hours, FIG. 128A", "result": "effective at mediating the depletion of human MIF"}, {"measurement": "depletion of human MIF protein from serum", "setting": "human MIF [3]; i.p.", "result": "significant depletion"}, {"measurement": "depletion of human MIF protein from serum", "setting": "human MIF [3]; i.v.", "result": "significant depletion"}, {"measurement": "concentration of human MIF in serum", "setting": "human MIF [3]; four hours, single 10 mpk dose, five μg human MIF (PBS 1.76 ng/mL; difference not significant), FIG. 134", "result": 0.68, "unit": "ng/mL"}, {"measurement": "human MIF levels in serum", "setting": "human MIF [3]; one mpk, 40 and 60 minute time points, FIG. 136", "result": "significant decrease"}, {"measurement": "concentration of human MIF in serum", "setting": "human MIF [3]; ten mpk, 40 and 60 minutes, FIG. 136", "result": "significant decreses"}, {"measurement": "mouse MIF concentrations in serum", "setting": "mouse MIF", "result": "No significant decrease"}, {"measurement": "PC3 tumor growth", "setting": "PC3 cells; 1 mpk", "result": "delay in tumor growth"}, {"measurement": "PC3 tumor growth", "setting": "PC3 cells; 10 mpk", "result": "not found to decrease tumor growth"}, {"measurement": "human MIF protein in serum", "setting": "PC3 cells; MIF-GN3 at 1 mpk, FIG. 139", "result": "decreased levels of human MIF protein"}, {"measurement": "survival", "setting": "PC3 cells; eight weeks after the initial PC3 cell injection, MIF-GN3 at 1 mpk, FIG. 140", "result": 80, "unit": "%"}, {"measurement": "colocalization of MIF protein with LAMP2", "setting": "HepG2 cells [4]", "result": "near-complete colocalization"}, {"measurement": "overlap of MIF punctae with EEA1", "setting": "HepG2 cells [4]", "result": "did not overlap"}, {"measurement": "half-life in serum", "setting": "[5]", "result": 25.8, "unit": "min"}, {"measurement": "maximum plasma concentration", "setting": "[5]", "result": 586.87, "unit": "ng/mL"}, {"measurement": "time of maximum plasma concentration", "setting": "[5]", "result": 15, "unit": "min"}]}
